Data taken from patent publication US12583825B2, “Benzo[h]quinazolin-4-amine and thieno[3,2-h]quinazolin-4-amine derivatives for the treatment of cancer” (Redona Therapeutics, Inc., priority 2020, dated 2026).

Key:
[1] = test system: MDA-MB-231 cells; assay: MDA-MB-231 proliferation assay; type: cell-based; details: Homo sapiens, 72 hours, YO-PRO-1 readout
Method: MDA-MB-231 Proliferation Assay
MDA-MB-231 cells were cultivated in DMEM High Glucose (4.5 g/L) with L-Glutamine (BioConcept, cat. no. 1-26F03-I) supplemented with 1% Na-pyruvate (Sigma, cat. no. S8636), 1% Penicillin-Streptomycin (BioConcept, cat. no. 4-01F00H), and 10% FBS (Sigma, cat. no. F9665) using standard techniques. Cells were seeded in black, clear-bottom 384 well plates for tissue culture (Greiner Bio-One, cat. no. 781091) at a density of 750 cells per well in 20 μL medium and the plates were incubated overnight at 37° C. with 5% CO2 prior to treatment. Experimental compounds were serially diluted in DMSO to 200× the desired final concentrations. The solutions were then diluted 1:40 with culture medium and 5 μL aliquots were mixed into the wells containing the cells. The final concentration of DMSO was 0.5%. The plates were incubated for 72 hours and cell numbers were then measured using YO-PRO™-1 Iodide (ThermoFisher Scientific, cat. no. Y3603) essentially as recommended by the manufacturer. […] The plates were incubated at room temperature in the dark for 30 minutes. Fluorescence intensity signals were then measured on a Synergy 4 reader (BioTek) using 485/20 nm and 530/25 nm filters for the excitation and emission, respectively. Relative proliferation values were calculated by normalizing the raw data using DMSO-treated cells (100% proliferation) and the signals obtained from cells that were evaluated at the time of compound addition (0% proliferation). The concentration-response data were fitted to a sigmoidal 4-parameter logistic model with the maximum constrained to 100%.

[2] = molecular target: T1, recombinant human CLK3 (Homo sapiens, UniProt P49761); assay: CLK3 kinase assay (LANCE Ultra); type: biochemical; details: 0.5 nM CLK3, 300 μM ATP, 3 hours at 30° C.
T1 construct: purchased Thermo Fisher Scientific PV3826
T1 sequence (P49761 whole entry): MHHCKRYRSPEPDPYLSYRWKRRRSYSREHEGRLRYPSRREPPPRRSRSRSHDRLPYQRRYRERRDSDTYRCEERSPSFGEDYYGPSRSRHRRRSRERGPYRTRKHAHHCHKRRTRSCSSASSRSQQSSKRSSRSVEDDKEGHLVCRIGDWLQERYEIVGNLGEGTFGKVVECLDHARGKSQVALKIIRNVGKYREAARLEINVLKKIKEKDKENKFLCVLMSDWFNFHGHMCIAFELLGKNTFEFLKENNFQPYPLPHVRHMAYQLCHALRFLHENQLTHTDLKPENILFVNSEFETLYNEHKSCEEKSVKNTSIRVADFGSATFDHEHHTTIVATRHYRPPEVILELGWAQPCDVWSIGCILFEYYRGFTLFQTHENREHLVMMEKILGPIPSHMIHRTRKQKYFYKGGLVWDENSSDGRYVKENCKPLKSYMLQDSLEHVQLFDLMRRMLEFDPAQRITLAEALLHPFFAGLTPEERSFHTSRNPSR
Method: CLK3 kinase activity was measured using the LANCE® Ultra technology (PerkinElmer) essentially as recommended by the supplier. Briefly, 2.5 μL of test sample at 4× the desired final concentration in 4% DMSO were dispensed into white, low volume, round bottom, 384 well plates (Corning, cat. no. 4512). 5 μL of a mixture containing recombinant human CLK3 (Thermo Fisher Scientific, cat. no. PV3826) and the labeled peptide substrate ULight™-CREBtide (PerkinElmer, cat. no. TRF0107) prepared in 1.33× kinase buffer (Thermo Fisher Scientific, cat. no. PV3189) were then added. Finally, the reactions were started by adding 2.5 μL of a 4× solution of ATP in kinase buffer. The plates were sealed with adhesive foils and incubated for 3 hours at 30° C. in the dark. The final concentrations of CLK3, ULight™—CREBtide, and ATP were 0.5 nM, 50 nM, and 300 μM, respectively. 5 μL of 40 mM EDTA were then added to terminate the reactions. The Eu-anti-phospho-CREB antibody (PerkinElmer, cat. no. TRF0200) diluted in LANCE® detection buffer (PerkinElmer, cat. no. CR97) was then added to a final concentration of 2 nM and the reactions were incubated for 1 hour at room temperature in the dark. The signals were measured using a Synergy 4 reader (BioTek) with a 320/80 nm filter for the excitation and 620/10 nm and 665/8 nm filters for the donor and acceptor emission, respectively. […] IC50 values were calculated by fitting the concentration-response data to a sigmoidal 4-parameter logistic model.

GI50 [1] [nM]	IC50 [2] [nM]	Structure (SMILES)
743		CCO/N=C1\c2cc(O[C@H]3CC[C@H](N)CC3)ccc2-c2ncnc(N)c2C1(C)C [Example 24, (6Z)-8-(trans-4-aminocyclohexoxy)-6-ethoxyimino-5,5-dimethyl-benzo[h]quinazolin-4-amine]
> 2000	116	CC1(C)/C(=N\OCCC#N)c2cc(O[C@H]3CC[C@H](N)CC3)ccc2-c2ncnc(N)c21 [Example 60, 3-[(E)-[4-amino-8-(trans-4-aminocyclohexoxy)-5,5-dimethyl-benzo[h]quinazolin-6-ylidene]amino]oxypropanenitrile]
1190	23.3	CNC(=O)CO/N=C1\c2cc(O[C@H]3CC[C@H](N)CC3)ccc2-c2ncnc(N)c2C1(C)C [Example 33, 2-[(Z)-[4-amino-8-(trans-4-aminocyclohexoxy)-5,5-dimethyl-benzo[h]quinazolin-6-ylidene]amino]oxy-N-methyl-acetamide]
169	15.6	CC1(C)/C(=N/OCCC#N)c2cc(O[C@H]3CC[C@H](N)CC3)ccc2-c2ncnc(N)c21 [Example 55, 3-[(Z)-[4-amino-8-(trans-4-aminocyclohexoxy)-5,5-dimethyl-benzo[h]quinazolin-6-ylidene]amino]oxypropanenitrile]
> 2000	66.3	C[C@@H](O)CO/N=C1\c2cc(O[C@H]3CC[C@H](N)CC3)ccc2-c2ncnc(N)c2C1(C)C [Example 78, (2R)-1-[(Z)-[4-amino-8-(trans-4-aminocyclohexoxy)-5,5-dimethyl-benzo[h]quinazolin-6-ylidene]amino]oxypropan-2-ol]
> 2000	31.8	CC1(C)/C(=N/OCCCS(C)(=O)=O)c2cc(O[C@H]3CC[C@@H](N)CC3)ccc2-c2ncnc(N)c21 [Example 110, (6Z)-8-(cis-4-aminocyclohexoxy)-5,5-dimethyl-6-(3-methylsulfonylpropoxyimino)benzo[h]quinazoline-4-amine]
> 2000		CO/N=C1\c2cc(O[C@H]3CC[C@H](N)CC3)cc(Cl)c2-c2ncnc(N)c2C1(C)C [Example 39, (6Z)-8-(trans-4-aminocyclohexoxy)-10-chloro-6-methoxyimino-5,5-dimethyl-benzo[h]quinazolin-4-amine]
	98.6	CO/N=C1\c2cc(Br)ccc2-c2ncnc(N)c2C1(C)C [Example 89, (6Z)-8-bromo-6-methoxyimino-5,5-dimethyl-benzo[h]quinazolin-4-amine]
942		CC1(C)/C(=N/OCCCc2cccnc2)c2cc(O[C@H]3CC[C@@H](N)CC3)ccc2-c2ncnc(N)c21 [Example 108, (6Z)-8-(cis-4-aminocyclohexoxy)-5,5-dimethyl-6-[3-(3-pyridyl)propoxyimino]benzo[h]quinazoline-4-amine]
	410	CCN(CC)CCCO/N=C1\c2cc(O[C@H]3CC[C@H](N)CC3)ccc2-c2ncnc(N)c2C1(C)C [Example 17, (6Z)-8-(trans-4-aminocyclohexoxy)-6-[3-(diethylamino)propoxyimino]-5,5-dimethyl-benzo[h]quinazolin-4-amine]
	173	COc1ccc2c(c1)/C(=N\OC[C@H]1CCN(C)C1)C(C)(C)c1c(N)ncnc1-2 [Example 71, (6Z)-8-methoxy-5,5-dimethyl-6-[[(3S)-1-methylpyrrolidin-3-yl]methoxyimino]benzo[h]quinazolin-4-amine]
	313	COc1ccc2c(c1)/C(=N/OC[C@@H]1CCNC1)C(C)(C)c1c(N)ncnc1-2 [Example 63, (6E)-8-methoxy-5,5-dimethyl-6-[[(3R)-pyrrolidin-3-yl]methoxyimino]benzo[h]quinazolin-4-amine]
> 2000		C=CCO/N=C1\c2cc(O[C@H]3CC[C@H](N)CC3)ccc2-c2ncnc(N)c2C1(C)C [Example 64, (6Z)-6-allyloxyimino-8-(trans-4-aminocyclohexoxy)-5,5-dimethyl-benzo[h]quinazolin-4-amine]

More lines, now with the values behind:

Structure (SMILES)	GI50 [1] [nM]	IC50 [2] [nM]
COc1ccc2c(c1)/C(=N\OCC(=O)NCCN)C(C)(C)c1c(N)ncnc1-2 [Example 8, N-(2-aminoethyl)-2-[(Z)-(4-amino-8-methoxy-5,5-dimethyl-benzo[h]quinazolin-6-ylidene)amino]oxy-acetamide]	> 2000	73.2
CC1(C)/C(=N/OCCCOCc2ccccc2)c2cc(O[C@H]3CC[C@H](N)CC3)ccc2-c2ncnc(N)c21 [Example 26, (6Z)-8-(trans-4-aminocyclohexoxy)-6-(3-benzyloxypropoxyimino)-5,5-dimethyl-benzo[h]quinazolin-4-amine]	1360	42.6
CO/N=C1\c2cc(OC)c(N)cc2-c2ncnc(N)c2C1(C)C [Example 42, (6Z)-8-methoxy-6-methoxyimino-5,5-dimethyl-benzo[h]quinazoline-4,9-diamine]	> 2000	
CC1(C)/C(=N/OCCOC(F)(F)F)c2cc(O[C@H]3CC[C@@H](N)CC3)ccc2-c2ncnc(N)c21 [Example 105, (6Z)-8-(cis-4-aminocyclohexoxy)-5,5-dimethyl-6-[2-(trifluoromethoxy)ethoxyimino]benzo[h]quinazoline-4-amine]	82	
COc1ccc2c(c1)/C(=N\OC[C@H]1CC[C@H](N)CC1)C(C)(C)c1c(N)ncnc1-2 [Example 11, (6Z)-6-[(trans-4-aminocyclohexyl)methoxyimino]-8-methoxy-5,5-dimethyl-benzo[h]quinazolin-4-amine]		437
COc1ccc2c(c1)/C(=N\OC[C@@H]1CCNC1)C(C)(C)c1c(N)ncnc1-2 [Example 62, (6Z)-8-methoxy-5,5-dimethyl-6-[[(3R)-pyrrolidin-3-yl]methoxyimino]benzo[h]quinazolin-4-amine]		372
CO/N=C1\c2cc(O[C@H]3CC[C@@H](N)CC3)ccc2-c2ncnc(N)c2C1(C)C [Example 54, (6Z)-8-(cis-4-aminocyclohexoxy)-6-methoxyimino-5,5-dimethyl-benzo[h]quinazolin-4-amine]		1.9
CC(C)O/N=C1\c2cc(O[C@H]3CC[C@H](N)CC3)ccc2-c2ncnc(N)c2C1(C)C [Example 67, (6Z)-8-(trans-4-aminocyclohexoxy)-6-isopropoxyimino-5,5-dimethyl-benzo[h]quinazolin-4-amine]	> 2000	
COc1ccc2c(c1)/C(=N\OCC(=O)O)C(C)(C)c1c(N)ncnc1-2 [Example 5, 2-[(Z)-(4-amino-8-methoxy-5,5-dimethyl-benzo[h]quinazolin-6-ylidene)amino]oxyacetic acid]		227
CO/N=C1\c2cc(N(C)C3CCNCC3)ccc2-c2ncnc(N)c2C1(C)C [Example 69, (6Z)-6-methoxyimino-N8,5,5-trimethyl-N8-(4-piperidyl)benzo[h]quinazoline-4,8-diamine]	> 2000	
CC1(C)/C(=N/OCCOc2ccccc2)c2cc(O[C@H]3CC[C@@H](N)CC3)ccc2-c2ncnc(N)c21 [Example 107, (6Z)-8-(cis-4-aminocyclohexoxy)-5,5-dimethyl-6-(2-phenoxyethoxyimino)benzo[h]quinazoline-4-amine]	319	
COc1ccc2c(c1)/C(=N\OCC(N)=O)C(C)(C)c1c(N)ncnc1-2 [Example 7, 2-[(Z)-(4-amino-8-methoxy-5,5-dimethyl-benzo[h]quinazolin-6-ylidene)amino]oxyacetamide]		115
